Measured values taken from ChEMBL document CHEMBL1138030, “Inhibitors of HCV NS5B polymerase: synthesis and structure-activity relationships of N-1-benzyl and N-1-[3-methylbutyl]-4-hydroxy-1,8-naphthyridon-3-yl benzothiadiazine analogs containing substituents on the aromatic ring” (Bioorg Med Chem Lett, 2006).

Tests used:
Hepatitis C virus [1] = experiment: Inhibition of HCV 1b replication in presence of 40% human serum; format: functional, organism-based, Hepatitis C virus subtype 1b
Hepatitis C virus [2] = experiment: Inhibition of HCV 1b replication in presence of 5% fetal calf serum; format: functional, organism-based, Hepatitis C virus subtype 1b
[3] = Ratio of drug level in liver to plasma in rat after 8 hrs; format: ADME, organism-based
[4] = Bioavailability in rat at 5 mg/kg, po; format: ADME, organism-based; conditions: in vivo
[5] = target: T1, RNA-directed RNA polymerase (Hepacivirus hominis, UniProt O39930); experiment: Inhibition of HCV 1b NS5B RNA polymerase; design: species or system Hepatitis C virus subtype 1b
[6] = Clearance in rat at 5 mg/kg, po; format: ADME, organism-based; design: dose 5 mg/kg, route oral; conditions: in vivo
[7] = Cmax in rat at 5 mg/kg, po; format: ADME, organism-based; design: dose 5 mg/kg, route oral; conditions: in vivo
[8] = Protein binding in plasma; format: ADME, cell-free; conditions: read-out: PPB
[9] = Half life in rat at 5 mg/kg, po; format: ADME, organism-based; design: dose 5 mg/kg, route oral; conditions: in vivo
[10] = target: T1, RNA-directed RNA polymerase; experiment: Inhibition of HCV 1a NS5B RNA polymerase; design: species or system Hepatitis C virus subtype 1a

T1 sequence (O39930 whole entry): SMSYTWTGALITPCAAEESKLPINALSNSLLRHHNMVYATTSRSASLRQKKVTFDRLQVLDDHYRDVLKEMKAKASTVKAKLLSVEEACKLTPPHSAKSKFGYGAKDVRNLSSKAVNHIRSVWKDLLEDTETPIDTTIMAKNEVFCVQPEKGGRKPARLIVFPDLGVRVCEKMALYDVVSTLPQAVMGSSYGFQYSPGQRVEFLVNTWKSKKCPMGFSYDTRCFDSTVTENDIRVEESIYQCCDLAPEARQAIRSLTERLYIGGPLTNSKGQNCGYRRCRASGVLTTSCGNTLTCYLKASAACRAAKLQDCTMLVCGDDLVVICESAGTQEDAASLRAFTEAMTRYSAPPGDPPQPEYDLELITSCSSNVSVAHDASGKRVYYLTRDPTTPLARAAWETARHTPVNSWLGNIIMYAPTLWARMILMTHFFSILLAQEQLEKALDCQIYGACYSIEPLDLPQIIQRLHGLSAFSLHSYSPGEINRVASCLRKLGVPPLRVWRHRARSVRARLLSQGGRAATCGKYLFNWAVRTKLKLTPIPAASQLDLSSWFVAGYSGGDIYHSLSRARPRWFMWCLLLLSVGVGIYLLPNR

| Compound | IC50 [5] | IC50 [10] | other results |
| --- | --- | --- | --- |
| O=c1c(C2=NS(=O)(=O)c3cccc(Br)c3N2)c(O)c2cccnc2n1Cc1ccccc1 | 1.17 µM | 6.2 µM | – |
| CNC(=O)COc1ccc2c(c1)S(=O)(=O)NC(c1c(O)c3cccnc3n(CCC(C)C)c1=O)=N2 | 0.08 µM | 0.18 µM | – |
| O=c1c(C2=NS(=O)(=O)c3ccccc3N2)c(O)c2cccnc2n1Cc1ccccc1 | – | 5.8 µM | – |
| COc1ccc2c(c1)S(=O)(=O)N=C(c1c(O)c3cccnc3n(CCC(C)C)c1=O)N2 | 0.065 µM | 1.13 µM | – |
| COc1ccc2c(c1)N=C(c1c(O)c3cccnc3n(Cc3ccccc3)c1=O)NS2(=O)=O | 3.9 µM | – | – |
| CC(C)CCn1c(=O)c(C2=NS(=O)(=O)c3cc(OCC(=O)N(C)C)ccc3N2)c(O)c2cccnc21 | 0.07 µM | 0.934 µM | – |
| O=c1c(C2=NS(=O)(=O)c3cccc(O)c3N2)c(O)c2cccnc2n1Cc1ccccc1 | 0.054 µM | 8.37 µM | – |
| CC(C)CCn1c(=O)c(C2=Nc3ccc(OCC(=O)OC(C)(C)C)cc3S(=O)(=O)N2)c(O)c2cccnc21 | 0.85 µM | 5 µM | – |
| O=c1c(C2=NS(=O)(=O)c3ccc(O)cc3N2)c(O)c2cccnc2n1Cc1ccccc1 | 2.51 µM | – | – |
| CC(C)CCn1c(=O)c(C2=NS(=O)(=O)c3cc(OCC(=O)O)ccc3N2)c(O)c2cccnc21 | 0.057 µM | 0.367 µM | – |
| CC(C)CCn1c(=O)c(C2=NS(=O)(=O)c3cc(NS(C)(=O)=O)ccc3N2)c(O)c2cccnc21 | – | 0.002 µM | EC50 (Hepatitis C virus [1]): 1.31 µM; EC50 (Hepatitis C virus [2]): 0.003 µM; fraction unbound [8]: < 0.01 |
| Cc1cccc2c1N=C(c1c(O)c3cccnc3n(Cc3ccccc3)c1=O)NS2(=O)=O | 0.096 µM | 6.7 µM | – |
| COc1cccc2c1NC(c1c(O)c3cccnc3n(Cc3ccccc3)c1=O)=NS2(=O)=O | 2.12 µM | 18 µM | – |
| CC(C)CCn1c(=O)c(C2=NS(=O)(=O)c3cc(O)ccc3N2)c(O)c2cccnc21 | 0.042 µM | 0.39 µM | – |
| Cc1ccc2c(c1)S(=O)(=O)NC(c1c(O)c3cccnc3n(Cc3ccccc3)c1=O)=N2 | 0.23 µM | 25.7 µM | – |
| CC(C)CCn1c(=O)c(C2=Nc3ccc(OCc4ccccc4)cc3S(=O)(=O)N2)c(O)c2cccnc21 | 1.49 µM | – | – |
| CC(C)CCn1c(=O)c(C2=NS(=O)(=O)c3cc(NC(=O)C(F)(F)F)ccc3N2)c(O)c2cccnc21 | 0.07 µM | 0.906 µM | – |
| COc1cccc2c1N=C(c1c(O)c3cccnc3n(CCC(C)C)c1=O)NS2(=O)=O | 1.17 µM | 17.6 µM | – |
| O=c1c(C2=Nc3ccc(Br)cc3S(=O)(=O)N2)c(O)c2cccnc2n1Cc1ccccc1 | 0.756 µM | 16.8 µM | – |
| COc1ccc2c(c1)S(=O)(=O)NC(c1c(O)c3cccnc3n(Cc3ccccc3)c1=O)=N2 | 0.076 µM | 8.31 µM | – |
| CC(C)CCn1c(=O)c(C2=Nc3ccc(OCCN)cc3S(=O)(=O)N2)c(O)c2cccnc21 | 0.051 µM | 0.637 µM | – |
| CCCOc1ccc2c(c1)S(=O)(=O)NC(c1c(O)c3cccnc3n(CCC(C)C)c1=O)=N2 | 0.93 µM | 1.62 µM | – |

More lines, main results first:

| IC50 [5] | IC50 [10] | Compound | other results |
| --- | --- | --- | --- |
| 0.016 µM | 0.046 µM | CC(C)CCn1c(=O)c(C2=Nc3ccc(OCC(N)=O)cc3S(=O)(=O)N2)c(O)c2cccnc21 | EC50 (Hepatitis C virus [1]): 2.74 µM; EC50 (Hepatitis C virus [2]): 0.078 µM; Kp at 8 h [3]: 54; bioavailability [4]: 35%; CL/F [6]: 12.3 mL/min/kg; Cmax [7]: 180 nM; fraction unbound [8]: < 0.01; half-life [9]: 2 h |
| 0.034 µM | 0.47 µM | CC(C)CCn1c(=O)c(C2=Nc3ccc(NCC(N)=O)cc3S(=O)(=O)N2)c(O)c2cccnc21 | EC50 (Hepatitis C virus [2]): 0.45 µM |
| 0.041 µM | 0.81 µM | CC(C)CCn1c(=O)c(C2=NS(=O)(=O)c3ccccc3N2)c(O)c2cccnc21 | – |
| 0.025 µM | 0.141 µM | CC(C)CCn1c(=O)c(C2=NS(=O)(=O)c3cc(OCC#N)ccc3N2)c(O)c2cccnc21 | – |
| 0.024 µM | 0.12 µM | CC(C)CCn1c(=O)c(C2=Nc3ccc(NCC#N)cc3S(=O)(=O)N2)c(O)c2cccnc21 | – |
| 0.007 µM | 0.041 µM | CC(C)CCn1c(=O)c(C2=Nc3ccc(NS(=O)(=O)c4ccccc4)cc3S(=O)(=O)N2)c(O)c2cccnc21 | EC50 (Hepatitis C virus [2]): 1.69 µM |
| 0.003 µM | 0.008 µM | CC(C)CCn1c(=O)c(C2=NS(=O)(=O)c3cc(NS(=O)(=O)C(C)C)ccc3N2)c(O)c2cccnc21 | EC50 (Hepatitis C virus [2]): 0.11 µM |
| 0.023 µM | 0.31 µM | CC(C)CCn1c(=O)c(C2=Nc3ccc(N)cc3S(=O)(=O)N2)c(O)c2cccnc21 | EC50 (Hepatitis C virus [2]): 0.48 µM |
| 0.005 µM | 0.022 µM | CCCCS(=O)(=O)Nc1ccc2c(c1)S(=O)(=O)NC(c1c(O)c3cccnc3n(CCC(C)C)c1=O)=N2 | EC50 (Hepatitis C virus [2]): 1 µM |
